Reference: article PMC2798597 (Biochemical pharmacology, 2009)

What was measured:
[1] = FG020326 plasma levels in mice; format: in vivo; details: NIH mice, 100 mg/kg p.o.; for plasma concentration at 8 h: 8 h after administration
KBv200 (ABCB1) = assay: MTT cytotoxicity / MDR reversal; format: cell-based, human; details: KBv200 cells
SW1573 = assay: MTT cytotoxicity / MDR reversal; format: cell-based, human; details: SW1573 cells; +5 µM FG020326
KB cells [2] = assay: ABCB1 function analysis, Rho 123 retention; format: cell-based, human; details: drug sensitive KB cells
ABCB1 = ABCB1 (Homo sapiens, UniProt P08183); format: biochemical; details: read-out: IC50, inhibition of ABCB1 ATPase activity; Vi-sensitive ATPase; membrane vesicles of High Five insect cells
Sequence of ABCB1 (P08183 whole entry): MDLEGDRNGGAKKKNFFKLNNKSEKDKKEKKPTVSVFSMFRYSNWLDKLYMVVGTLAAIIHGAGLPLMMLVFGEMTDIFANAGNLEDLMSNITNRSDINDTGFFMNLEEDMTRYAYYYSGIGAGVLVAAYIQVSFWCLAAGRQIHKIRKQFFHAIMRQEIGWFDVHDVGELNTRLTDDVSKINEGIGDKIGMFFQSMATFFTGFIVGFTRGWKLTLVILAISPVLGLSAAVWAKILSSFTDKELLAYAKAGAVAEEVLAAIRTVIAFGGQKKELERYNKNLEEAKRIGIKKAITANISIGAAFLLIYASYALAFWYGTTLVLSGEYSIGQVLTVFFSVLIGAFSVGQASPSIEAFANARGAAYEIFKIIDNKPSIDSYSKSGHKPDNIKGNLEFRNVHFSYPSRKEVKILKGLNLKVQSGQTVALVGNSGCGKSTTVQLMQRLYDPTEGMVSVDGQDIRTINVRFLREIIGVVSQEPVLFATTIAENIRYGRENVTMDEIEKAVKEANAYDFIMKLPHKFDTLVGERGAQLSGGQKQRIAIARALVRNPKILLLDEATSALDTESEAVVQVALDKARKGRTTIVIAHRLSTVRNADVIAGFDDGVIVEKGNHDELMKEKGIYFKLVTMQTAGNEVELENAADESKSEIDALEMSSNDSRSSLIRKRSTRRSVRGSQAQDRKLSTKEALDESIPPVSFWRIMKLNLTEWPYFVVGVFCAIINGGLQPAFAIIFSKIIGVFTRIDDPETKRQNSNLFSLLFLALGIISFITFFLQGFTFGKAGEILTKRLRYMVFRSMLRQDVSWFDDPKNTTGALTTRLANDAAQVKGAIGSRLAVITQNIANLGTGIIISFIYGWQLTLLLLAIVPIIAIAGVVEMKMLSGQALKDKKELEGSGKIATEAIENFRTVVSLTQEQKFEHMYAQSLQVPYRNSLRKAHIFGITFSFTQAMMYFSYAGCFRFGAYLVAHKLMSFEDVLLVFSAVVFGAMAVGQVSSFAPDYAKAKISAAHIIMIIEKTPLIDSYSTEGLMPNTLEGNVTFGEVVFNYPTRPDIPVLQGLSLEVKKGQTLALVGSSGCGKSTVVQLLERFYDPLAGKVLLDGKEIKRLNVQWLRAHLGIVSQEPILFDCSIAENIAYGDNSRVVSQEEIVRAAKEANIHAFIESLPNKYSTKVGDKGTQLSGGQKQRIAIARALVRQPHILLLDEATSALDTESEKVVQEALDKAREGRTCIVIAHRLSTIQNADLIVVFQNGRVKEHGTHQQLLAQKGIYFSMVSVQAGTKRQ

KB-CV60 (ABCC1) = assay: MTT cytotoxicity / MDR reversal; format: cell-based, human; details: KB-CV60 cells; +5 µM FG020326
[3] = test system: the entire cell lines tested; assay: MTT cytotoxicity of FG020326 alone; format: cell-based
KBv200 cell xenografts = assay: MDR human carcinoma xenograft model; format: in vivo, athymic nude mice
KB-3-1 = assay: MTT cytotoxicity / MDR reversal; format: cell-based, human; details: KB-3-1 cells; +5 µM FG020326
KB cells [4] = assay: Dox efflux; format: cell-based, human; details: 5 µM FG020326
MCF-7/adr (ABCB1) = assay: MTT cytotoxicity / MDR reversal; format: cell-based, human; details: MCF-7/adr cells
KBv200 cells [5] = assay: Intracellular Dox accumulation; format: cell-based, human
S1-M1-80 (ABCG2) = assay: MTT cytotoxicity / MDR reversal; format: cell-based; details: S1-M1-80 cells; +5 µM FG020326
S1 = assay: MTT cytotoxicity / MDR reversal; format: cell-based; details: S1 cells; +5 µM FG020326
MCF-7 = assay: MTT cytotoxicity / MDR reversal; format: cell-based, human; details: MCF-7 cells
NIH3T3/MRP-4-2 (ABCC4) = assay: MTT cytotoxicity / MDR reversal; format: cell-based, murine; details: NIH3T3/MRP-4-2 cells; +5 µM FG020326
[6] = test system: ABCB1 expression in KBv200 cells; details: 48 h, Western blot
KB cells [7] = assay: Intracellular Dox accumulation; format: cell-based, human; details: drug sensitive KB cells; 0.625-10 µM
KBv200 cells [8] = assay: Dox efflux; format: cell-based, human; details: 5 µM FG020326
KB = assay: MTT cytotoxicity / MDR reversal; format: cell-based, human; details: KB cells
NIH3T3 = assay: MTT cytotoxicity / MDR reversal; format: cell-based, murine; details: NIH3T3 cells; +5 µM FG020326
SW1573/2R120 (LRP) = assay: MTT cytotoxicity / MDR reversal; format: cell-based, human; details: SW1573/2R120 cells; +5 µM FG020326
[9] = VCR experiment, VCR 0.2 mg/kg i.p. q2d×6, FG020326 100 mg/kg p.o. q2d×6
[10] = paclitaxel experiment, paclitaxel 18 mg/kg i.p. q5d×3, FG020326 100 mg/kg p.o.

COC(=O)/C=C/c1ccc(-c2nc(-c3ccc(N(C)C(C)C)cc3)c(-c3ccc(N(C)C(C)C)cc3)[nH]2)cc1 [FG020326, 2-[(4-Methyl-trans-acrylate)phenyl]-4,5-bis-(4-N, N-methyl-isopropyl-aminophenyl)-1(H)-imidazole]
peak plasma concentration ([1]; 100 mg/kg): about 5.3 µM
plasma concentration at 8 h ([1]; 100 mg/kg): not less than 1.24 µM
plasma concentration at 8 h ([1]; listed as FG020236, 100 mg/kg): > 1240 nM
plasma concentration at 12 h ([1]; 12 h after administration): 920 nM
peak plasma concentration ([1]; listed as FG020236, 100 mg/kg): 5.3 µM
fold-reversal (doxorubicin) (KBv200 (ABCB1); +1.25 µM FG020326): (4.2) fold
fold-reversal (paclitaxel) (KBv200 (ABCB1); +1.25 µM FG020326): (5.0) fold
fold-reversal (vincristine) (KBv200 (ABCB1); +1.25 µM FG020326): (16.7) fold
fold-reversal (doxorubicin) (KBv200 (ABCB1); +2.5 µM FG020326): (8.0) fold
fold-reversal (paclitaxel) (KBv200 (ABCB1); +2.5 µM FG020326): (10.3) fold
fold-reversal (vincristine) (KBv200 (ABCB1); +2.5 µM FG020326): (34.7) fold
fold-reversal (doxorubicin) (KBv200 (ABCB1); +5 µM FG020326): (12.2) fold
fold-reversal (paclitaxel) (KBv200 (ABCB1); +5 µM FG020326): (30.4) fold
fold-reversal (vincristine) (KBv200 (ABCB1); +5 µM FG020326): (57.3) fold
fold-reversal (doxorubicin) (SW1573): (1.2) fold
effect on Rho 123 accumulation (KB cells [2]): not significantly altered
IC50 (ABCB1): 2500 nM
fold-reversal (vincristine) (KB-CV60 (ABCC1)): (0.9) fold
Cell survival ([3]; all cell lines, concentrations used to reverse MDR, data not shown): > 90%
IC50 ([3]; read-out: IC50 (cytotoxicity of FG020326 alone), MTT, entire cell lines tested): > 50000 nM
Growth Inhibition (KBv200 cell xenografts; [9]): 9.4%
Weight of tumor (KBv200 cell xenografts; [9]): 2.43 ± 0.70 g
Growth Inhibition (KBv200 cell xenografts; [10]): 7.2%
Weight of tumor (KBv200 cell xenografts; [10]): 2.08 ± 1.00 g
fold-reversal (vincristine) (KB-3-1): (0.9) fold
effect on efflux of Dox (KB cells [4]): but not the KB cells
fold-reversal (doxorubicin) (MCF-7/adr (ABCB1); +1.25 µM FG020326): (6.4) fold
fold-reversal (paclitaxel) (MCF-7/adr (ABCB1); +1.25 µM FG020326): (3.5) fold
fold-reversal (vincristine) (MCF-7/adr (ABCB1); +1.25 µM FG020326): (2.3) fold
fold-reversal (doxorubicin) (MCF-7/adr (ABCB1); +2.5 µM FG020326): (9.6) fold
fold-reversal (paclitaxel) (MCF-7/adr (ABCB1); +2.5 µM FG020326): (8.8) fold
fold-reversal (vincristine) (MCF-7/adr (ABCB1); +2.5 µM FG020326): (4.6) fold
fold-reversal (cisplatin) (MCF-7/adr (ABCB1); +5 µM FG020326): (0.9) fold
fold-reversal (doxorubicin) (MCF-7/adr (ABCB1); +5 µM FG020326): (14.3) fold
fold-reversal (paclitaxel) (MCF-7/adr (ABCB1); +5 µM FG020326): (22.0) fold
fold-reversal (vincristine) (MCF-7/adr (ABCB1); +5 µM FG020326): (10.7) fold
enhancement of Dox accumulation (KBv200 cells [5]; 0.625 µM FG020326, 10 µM Dox): 1.4 fold
enhancement of Dox accumulation (KBv200 cells [5]; 1.25 µM FG020326, 10 µM Dox): 2.1 fold
enhancement of Dox accumulation (KBv200 cells [5]; 2.5 µM FG020326, 10 µM Dox): 2.6 fold
enhancement of Dox accumulation (KBv200 cells [5]; 5 µM FG020326, 10 µM Dox): 3.0 fold
enhancement of Dox accumulation (KBv200 cells [5]; 10 µM FG020326, 10 µM Dox): 3.7 fold
fold-reversal (topotecan) (S1-M1-80 (ABCG2)): (1.0) fold
fold-reversal (topotecan) (S1): (1.1) fold
fold-reversal (doxorubicin) (MCF-7; +1.25 µM FG020326): (1.0) fold
fold-reversal (paclitaxel) (MCF-7; +1.25 µM FG020326): (1.1) fold
fold-reversal (vincristine) (MCF-7; +1.25 µM FG020326): (0.9) fold
fold-reversal (doxorubicin) (MCF-7; +2.5 µM FG020326): (1.0) fold
fold-reversal (paclitaxel) (MCF-7; +2.5 µM FG020326): (1.0) fold
fold-reversal (vincristine) (MCF-7; +2.5 µM FG020326): (1.0) fold
fold-reversal (cisplatin) (MCF-7; +5 µM FG020326): (0.9) fold
fold-reversal (doxorubicin) (MCF-7; +5 µM FG020326): (0.9) fold
fold-reversal (paclitaxel) (MCF-7; +5 µM FG020326): (1.0) fold
fold-reversal (vincristine) (MCF-7; +5 µM FG020326): (0.9) fold
fold-reversal (vincristine) (NIH3T3/MRP-4-2 (ABCC4)): (0.9) fold
effect on ABCB1 protein expression level [6]: no marked difference
effect on intracellular accumulation of Dox (KB cells [7]): did not significantly alter the intracellular accumulation of Dox
effect on efflux of Dox (KBv200 cells [8]): significantly inhibited the efflux of Dox
fold-reversal (doxorubicin) (KB; +1.25 µM FG020326): (1.0) fold
fold-reversal (paclitaxel) (KB; +1.25 µM FG020326): (1.0) fold
fold-reversal (vincristine) (KB; +1.25 µM FG020326): (1.0) fold
fold-reversal (doxorubicin) (KB; +2.5 µM FG020326): (1.0) fold
fold-reversal (paclitaxel) (KB; +2.5 µM FG020326): (1.0) fold
fold-reversal (vincristine) (KB; +2.5 µM FG020326): (1.0) fold
fold-reversal (5-FU) (KB; +5 µM FG020326): (1.0) fold
fold-reversal (doxorubicin) (KB; +5 µM FG020326): (0.9) fold
fold-reversal (paclitaxel) (KB; +5 µM FG020326): (1.1) fold
fold-reversal (vincristine) (KB; +5 µM FG020326): (1.0) fold
fold-reversal (vincristine) (NIH3T3): (0.9) fold
fold-reversal (doxorubicin) (SW1573/2R120 (LRP)): (1.0) fold
